Reference: ChEMBL document CHEMBL5506050, “Discovery of Oral AMP-Activated Protein Kinase Activators for Treating Hyperlipidemia” (J Med Chem, 2024)
Active and inactive are the calls of the source. No cut-off for these calls is given here.

Legend:
[1] = biological target: AMP-activated protein kinase (AMPK) alpha-1/beta-1/gamma-1 (Homo sapiens) (UniProt P54619+Q9Y478+Q13131); test: Activation of AMPK alpha1/AMPKbeta1/AMPKgamma1 (unknown origin) using SAMS peptide as substrate assessed as relative enzyme activity at 10 uM incubated for 20 mins in presence of [gamma-32P]ATP by scintillation counter analysis; type: protein-complex assay; conditions: filed as activator
Chain of AMP-activated protein kinase (AMPK) alpha-1/beta-1/gamma-1 (Homo sapiens) (P54619 whole entry): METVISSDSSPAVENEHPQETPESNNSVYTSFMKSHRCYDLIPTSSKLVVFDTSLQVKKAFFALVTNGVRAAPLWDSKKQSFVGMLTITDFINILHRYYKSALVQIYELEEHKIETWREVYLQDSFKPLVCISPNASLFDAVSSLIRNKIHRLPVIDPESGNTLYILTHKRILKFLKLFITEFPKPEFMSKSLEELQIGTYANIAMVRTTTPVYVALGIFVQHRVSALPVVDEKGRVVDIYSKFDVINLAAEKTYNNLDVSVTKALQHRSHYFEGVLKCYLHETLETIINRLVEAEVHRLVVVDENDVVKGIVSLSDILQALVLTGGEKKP
Chain of AMP-activated protein kinase (AMPK) alpha-1/beta-1/gamma-1 (Homo sapiens) (Q13131 whole entry partner): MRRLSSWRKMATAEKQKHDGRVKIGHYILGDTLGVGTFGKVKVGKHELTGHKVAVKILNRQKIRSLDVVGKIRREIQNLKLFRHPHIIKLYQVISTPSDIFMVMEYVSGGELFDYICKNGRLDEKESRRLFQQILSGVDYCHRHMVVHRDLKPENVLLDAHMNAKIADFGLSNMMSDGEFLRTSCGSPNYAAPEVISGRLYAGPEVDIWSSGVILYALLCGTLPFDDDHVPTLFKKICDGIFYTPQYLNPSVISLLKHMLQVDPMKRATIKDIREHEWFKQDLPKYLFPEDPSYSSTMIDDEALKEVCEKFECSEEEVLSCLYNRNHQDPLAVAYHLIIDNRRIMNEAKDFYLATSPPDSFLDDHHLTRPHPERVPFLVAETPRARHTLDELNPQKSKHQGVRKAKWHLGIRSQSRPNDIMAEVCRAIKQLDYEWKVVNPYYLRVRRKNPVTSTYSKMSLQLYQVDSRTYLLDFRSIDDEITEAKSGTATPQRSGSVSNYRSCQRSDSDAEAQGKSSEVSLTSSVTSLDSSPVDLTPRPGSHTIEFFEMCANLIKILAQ
Chain of AMP-activated protein kinase (AMPK) alpha-1/beta-1/gamma-1 (Homo sapiens) (Q9Y478 2-270 partner limits assumed): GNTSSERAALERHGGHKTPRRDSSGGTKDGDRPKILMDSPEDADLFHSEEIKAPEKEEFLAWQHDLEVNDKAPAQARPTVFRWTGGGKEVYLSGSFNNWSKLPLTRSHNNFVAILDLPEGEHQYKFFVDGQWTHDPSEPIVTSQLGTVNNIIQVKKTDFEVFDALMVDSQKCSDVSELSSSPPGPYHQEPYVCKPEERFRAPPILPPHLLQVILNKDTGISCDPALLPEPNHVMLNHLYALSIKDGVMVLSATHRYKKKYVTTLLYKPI

[2] = system: Syrian golden hamster; test: Lipid lowering effect on high-fat diet-fed golden hamster assessed as decrease in serum LDL-C level at 6 mg/kg, po qd administered via gavage measured after 4 weeks relative to control; type: functional, Mesocricetus auratus; parameters: scale not given: the % may be the effect or the level left
[3] = system: Syrian golden hamster; test: Lipid lowering effect on high-fat diet-fed golden hamster assessed as decrease in serum TC level at 6 mg/kg, po qd administered via gavage measured after 4 weeks relative to control; type: functional, Mesocricetus auratus; parameters: scale not given: the % may be the effect or the level left
[4] = system: Syrian golden hamster; test: Lipid lowering effect on high-fat diet-fed golden hamster assessed as decrease in serum LDL-C level at 100 mg/kg, po qd administered via gavage measured after 4 weeks relative to control; type: functional, Mesocricetus auratus; parameters: scale not given: the % may be the effect or the level left
[5] = system: Syrian golden hamster; test: Lipid lowering effect on high-fat diet-fed golden hamster assessed as decrease in serum TC level administered orally once daily via gavage measured after 4 weeks; type: functional, organism-based; conditions: Mesocricetus auratus, dose 50-200 mg/kg, route po
[6] = system: Syrian golden hamster; test: Lipid lowering effect on high-fat diet-fed golden hamster assessed as decrease in AST level in liver at 50 to 200 mg/kg, po qd administered via gavage measured after 4 weeks; type: functional, organism-based; conditions: Mesocricetus auratus, dose 50-200 mg/kg
[7] = system: Syrian golden hamster; test: Lipid lowering effect on high-fat diet-fed golden hamster assessed as decrease in TG level in liver at 100 to 200 mg/kg, po qd administered via gavage measured after 4 weeks; type: functional, organism-based; conditions: Mesocricetus auratus, dose 100-200 mg/kg
[8] = system: Rhesus monkey; test: Lipid lowering effect in Rhesus monkey assessed as LDL-C level at 35 mg/kg, NG qd treated for 35 days followed by drug washout for 14 days; type: functional, Macaca mulatta; conditions: time 35 day
[9] = system: Rhesus monkey; test: Lipid lowering effect in Rhesus monkey assessed as decrease in serum LDL-C level at 35 mg/kg, NG qd measured after 21 days relative to control; type: functional, Macaca mulatta; parameters: scale not given: the % may be the effect or the level left; conditions: time 21 day
[10] = system: Rhesus monkey; test: Lipid lowering effect in Rhesus monkey assessed as decrease in blood LDL-C level at 35 mg/kg, NG qd treated for 35 days followed by drug washout for 14 days relative to control; type: functional, Macaca mulatta; parameters: scale not given: the % may be the effect or the level left; conditions: time 35 day
[11] = system: Mus musculus; test: Downregulation of Pparg mRNA level in liver of high-fat diet-fed C57BL/6 mouse model at 200 mg/kg, po for 4 weeks by GO analysis; type: functional, organism-based
[12] = system: Mus musculus; test: Downregulation of Ccl2 mRNA level in liver of high-fat diet-fed C57BL/6 mouse model at 200 mg/kg, po for 4 weeks by GO analysis; type: functional, organism-based
[13] = system: Mus musculus; test: Downregulation of Ccr2 mRNA level in liver of high-fat diet-fed C57BL/6 mouse model at 200 mg/kg, po for 4 weeks by GO analysis; type: functional, organism-based
[14] = system: Mus musculus; test: Downregulation of Ptafr mRNA level in liver of high-fat diet-fed C57BL/6 mouse model at 200 mg/kg, po for 4 weeks by GO analysis; type: functional, organism-based
[15] = system: Mus musculus; test: Downregulation of Syvn1 mRNA level in liver of high-fat diet-fed C57BL/6 mouse model at 200 mg/kg, po for 4 weeks by GO analysis; type: functional, organism-based
[16] = system: Mus musculus; test: Downregulation of Dnajb9 mRNA level in liver of high-fat diet-fed C57BL/6 mouse model at 200 mg/kg, po for 4 weeks by GO analysis; type: functional, organism-based
[17] = system: Mus musculus; test: Downregulation of Ctgf mRNA level in liver of high-fat diet-fed C57BL/6 mouse model at 200 mg/kg, po for 4 weeks by GO analysis; type: functional, organism-based
[18] = system: Mus musculus; test: Effect on Dnajb9 mRNA level in liver of diet-induced obese C57BL/6 mouse model harboring AMPKalpha LS-/- at 200 mg/kg, po for 4 weeks by GO analysis; type: functional, organism-based
[19] = system: Mus musculus; test: Effect on Syvn1 mRNA level in liver of diet-induced obese C57BL/6 mouse model harboring AMPKalpha LS-/- at 200 mg/kg, po for 4 weeks by GO analysis; type: functional, organism-based
[20] = system: Mus musculus; test: Effect on Hspa5 mRNA level in liver of diet-induced obese C57BL/6 mouse model harboring AMPKalpha LS-/- at 200 mg/kg, po for 4 weeks by GO analysis; type: functional, organism-based
[21] = system: Mus musculus; test: Effect on Ptafr mRNA level in liver of diet-induced obese C57BL/6 mouse model harboring AMPKalpha LS-/- at 200 mg/kg, po for 4 weeks by GO analysis; type: functional, organism-based
[22] = system: Mus musculus; test: Effect on Ccl2 mRNA level in liver of diet-induced obese C57BL/6 mouse model harboring AMPKalpha LS-/- at 200 mg/kg, po for 4 weeks by GO analysis; type: functional, organism-based
[23] = system: Mus musculus; test: Effect on Cidea mRNA level in liver of diet-induced obese C57BL/6 mouse model harboring AMPKalpha LS-/- at 200 mg/kg, po for 4 weeks by GO analysis; type: functional, organism-based
[24] = system: Mus musculus; test: Effect on Mvd mRNA level in liver of diet-induced obese C57BL/6 mouse model harboring AMPKalpha LS-/- at 200 mg/kg, po for 4 weeks by GO analysis; type: functional, organism-based
[25] = system: Mus musculus; test: Effect on Dhcr7 mRNA level in liver of diet-induced obese C57BL/6 mouse model harboring AMPKalpha LS-/- at 200 mg/kg, po for 4 weeks by GO analysis; type: functional, organism-based
[26] = system: Mus musculus; test: Effect on Pparg mRNA level in liver of diet-induced obese C57BL/6 mouse model harboring AMPKalpha LS-/- at 200 mg/kg, po for 4 weeks by GO analysis; type: functional, organism-based
[27] = system: Mus musculus; test: Effect on Mogat1 mRNA level in liver of diet-induced obese C57BL/6 mouse model harboring AMPKalpha LS-/- at 200 mg/kg, po for 4 weeks by GO analysis; type: functional, organism-based
[28] = Oral bioavailability in female Rhesus monkey at 70 mg/kg measured for 36 hrs by LC-tandem MS analysis; type: ADME, organism-based, Macaca mulatta; conditions: in vivo
[29] = AUC (0 to t) in male Rhesus monkey at 70 mg/kg, po or 7 mg/kg, iv measured for 36 hrs by LC-tandem MS analysis; type: ADME, organism-based, Macaca mulatta; conditions: in vivo
[30] = Half life in male Rhesus monkey at 70 mg/kg, po or 7 mg/kg, iv measured for 36 hrs by LC-tandem MS analysis; type: ADME, organism-based, Macaca mulatta; conditions: in vivo
[31] = Oral bioavailability in male Rhesus monkey at 70 mg/kg measured for 36 hrs by LC-tandem MS analysis; type: ADME, organism-based, Macaca mulatta; conditions: in vivo
[32] = Apparent permeability across apical to basal side in human Caco-2 cells at 21 uM incubated for 2 hrs by LC-MS/MS analysis; type: ADME, cell-based
[33] = Stability in human Caco-2 cells assessed as compound remaining at 10 ug/ml measured after 3 hrs by LC-MS/MS analysis; type: ADME, cell-based; conditions: at 10 µg/mL, read-out: Stability
[34] = biological target: Voltage-gated inwardly rectifying potassium channel KCNH2 (Homo sapiens, UniProt Q12809); test: Inhibition of hERG; type: toxicity
Chain of Voltage-gated inwardly rectifying potassium channel KCNH2 (Q12809 whole entry): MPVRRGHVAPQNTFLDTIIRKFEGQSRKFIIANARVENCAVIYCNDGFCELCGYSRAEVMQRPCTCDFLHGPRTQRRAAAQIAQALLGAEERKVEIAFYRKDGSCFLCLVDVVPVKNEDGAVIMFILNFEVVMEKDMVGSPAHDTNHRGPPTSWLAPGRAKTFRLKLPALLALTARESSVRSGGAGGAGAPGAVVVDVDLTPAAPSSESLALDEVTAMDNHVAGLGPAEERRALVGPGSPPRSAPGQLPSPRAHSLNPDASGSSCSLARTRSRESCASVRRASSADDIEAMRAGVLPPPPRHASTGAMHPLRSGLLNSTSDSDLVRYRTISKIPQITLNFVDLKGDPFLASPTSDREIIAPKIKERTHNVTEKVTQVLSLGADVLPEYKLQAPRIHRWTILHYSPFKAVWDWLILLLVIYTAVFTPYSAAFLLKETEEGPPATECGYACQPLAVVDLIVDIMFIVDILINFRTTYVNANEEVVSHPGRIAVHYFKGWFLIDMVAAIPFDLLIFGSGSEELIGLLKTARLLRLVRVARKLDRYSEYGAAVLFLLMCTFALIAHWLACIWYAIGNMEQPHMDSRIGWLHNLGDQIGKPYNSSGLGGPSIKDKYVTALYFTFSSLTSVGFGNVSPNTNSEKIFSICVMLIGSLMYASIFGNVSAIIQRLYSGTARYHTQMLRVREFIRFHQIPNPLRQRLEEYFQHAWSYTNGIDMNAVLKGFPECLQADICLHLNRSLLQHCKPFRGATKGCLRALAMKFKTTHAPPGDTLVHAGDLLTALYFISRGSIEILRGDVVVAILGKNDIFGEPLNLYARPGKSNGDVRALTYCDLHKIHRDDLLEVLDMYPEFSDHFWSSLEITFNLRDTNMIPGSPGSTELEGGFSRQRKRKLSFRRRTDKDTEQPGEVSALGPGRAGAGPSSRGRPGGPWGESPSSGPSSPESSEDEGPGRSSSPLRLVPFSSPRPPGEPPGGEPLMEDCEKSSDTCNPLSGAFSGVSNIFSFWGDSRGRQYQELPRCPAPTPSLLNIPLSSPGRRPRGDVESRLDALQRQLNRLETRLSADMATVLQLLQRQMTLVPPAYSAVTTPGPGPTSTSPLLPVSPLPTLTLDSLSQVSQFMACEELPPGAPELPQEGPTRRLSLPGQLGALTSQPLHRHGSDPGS

[35] = Acute toxicity in golden hamster assessed as animal survival at 20 g/Kg, po measured for 14 days; type: organism-based, Mesocricetus auratus; conditions: in vivo, 20000 mg/kg, 336 h, time 14 day

CC(=O)OC[C@H]1O[C@@H](n2cnc3c(Nc4cccc(O)c4)ncnc32)[C@H](OC(C)=O)[C@@H]1OC(C)=O showed an Activity [1] of 2.31, an Activity [2] of 27.5% and an Activity [3] of 24.8%. The Activity [4] was 36.2%, the Activity [5] was “Dose-Dependent Effect” and the Activity [6] was “Active”. For the same compound, the Activity [7] was “Active”, the Activity [8] was 1.25 mmol/L and the Activity [9] was 23.69%. For the same compound, the Activity [10] was 11.93%, the Activity [11] was “Active” and the Activity [12] was “Active”. The Activity [13] was “Active”, the Activity [14] was “Active” and the Activity [15] was “Active”. For the same compound, the Activity [16] was “Active”, the Activity [17] was “Active” and the Activity [18] was “inactive”. The Activity [19] was “inactive”, the Activity [20] was “inactive” and the Activity [21] was “inactive”. For the same compound, the Activity [22] was “inactive”, the Activity [23] was “inactive” and the Activity [24] was “inactive”. The Activity [25] was “inactive”, the Activity [26] was “inactive” and the Activity [27] was “inactive”. It also gave a bioavailability [28] of 3.75%, an AUC(0-t) at 36 h [29] of 109 ng·h/mL and a half-life [30] of 5.4 h. The bioavailability [31] was 3.04%, the Papp A→B at 2 h, 21 µM [32] was 8 ×10⁻⁶ cm/s and the remaining at 3 h, 10 ug/ml [33] was 52%. For the same compound, the IC50 [34] was greater than 30 µM and the Activity [35] was “Non-Toxic”.
